In patent publication US7618975B2, “4-arylamino-quinazolines and analogs as activators of caspases and inducers of apoptosis and the use thereof” (Myriad Pharmaceuticals, Inc., priority 2003, dated 2009):

Test system: T-47D cells
Assay: Caspase cascade activation (N-(Ac-DEVD)-N′-ethoxycarbonyl-R110 fluorogenic substrate) in T-47D cells; as to Caspase activity Ratio T-47D (24 hr): test concentration or dose not given here; as to Caspase activity Ratio T-47D (48 hr): test concentration or dose not given here
Assay type: cell-based, Human
Conditions: T-47D; for Caspase activity Ratio T-47D (48 hr) / Caspase activity Ratio T-47D (24 hr): ratio of net RFU to control

Structure (SMILES)	Caspase activity Ratio T-47D (48 hr)	Caspase activity Ratio T-47D (24 hr)	Ratio T-47D (48 hr) (48 hr, benzohydrazide analogs table)
COc1ccc(N(C)c2nc(Cl)nc3ccccc23)cc1OC [Example 68, (2-Chloro-quinazolin-4-yl)-(3,4-dimethoxy-phenyl)-methyl-amine]	13.1		
COc1ccc(N(C)c2nc(C)nc3cc([N+](=O)[O-])ccc23)cc1 [Example 112, (4-Methoxy-phenyl)-methyl-(2-methyl-7-nitro-quinazolin-4-yl)-amine]		1.0	
Cc1nc(N(C)c2ccc(N=[N+]=[N-])cc2)c2ccccc2n1 [Example 102, (4-Azido-phenyl)-(2-methyl-quinazolin-4-yl)-methyl-amine]	11.3	8.8	
COc1ccc(N(C)c2nc(CO)nc3ccccc23)cc1 [Example 76]	14.1	5.6	
COc1ccc(Nc2nc(C)nc3ccccc23)nc1 [Example 137, (5-Methoxy-pyridin-2-yl)-(2-methyl-quinazolin-4-yl)-amine]		1.2	
COc1ccc(N(C)c2nc(Cl)nc3cc(Cl)ccc23)cc1 [Example 62, (2,7-Dichloro-quinazolin-4-yl)-(4-methoxy-phenyl)-methyl-amine]	12.7		
COc1ccc(N(C)c2nc(C)nc3nccnc23)cc1 [Example 140, (4-Methoxy-phenyl)-(2-methyl-pteridin-4-yl)-methyl-amine]		7.0	
Cc1nc(Nc2ccc(OC(C)C)cc2)c2ccccc2n1 [Example 80, (4-Isopropoxy-phenyl)-(2-methyl-quinazolin-4-yl)-amine]		8.3	
Cc1nc(N(C)c2ccc(O)cc2)c2ccccc2n1 [Example 93, (4-Hydroxy-phenyl)-(2-methyl-quinazolin-4-yl)-methyl-amine]		11.3	
COc1cnc(Nc2nc(C)nc3ccccc23)nc1 [Example 141, (5-Methoxy-pyrimidin-2-yl)-(2-methyl-quinazolin-4-yl)-amine]		1.2	
COC(=O)c1ccc(N(C)c2nc(Cl)nc3ccccc23)cc1 [Example 52, (2-Chloro-quinazolin-4-yl)-(4-methylcarboxyphenyl)-methyl-amine]	10.8		
COc1ccc(N(C)c2nc(SC)nc3ccccc23)cc1 [Example 120, (2-Methylthio-quinazolin-4-yl)-(4-methoxy-phenyl)-methyl-amine]		5.2	
[2H]c1c([2H])c(N(C)c2nc(C)nc3ccccc23)c([2H])c([2H])c1OC [Example 108]		4.8	
Cc1nc(N(C)c2c(Br)cc(N)cc2Br)c2ccccc2n1 [Example 103, (4-Amino-2,6-dibromo-phenyl)-(2-methyl-quinazolin-4-yl)-methyl-amine]		9.3	
COc1cc(OC)c(Nc2nc(C)nc3ccccc23)c(OC)c1 [Example 82, (2-Methyl-quinazolin-4-yl)-(2,4,6-trimethoxy-phenyl)-amine]		1.0	
COc1c(Br)cc(N(C)c2nc(C)nc3ccc([N+](=O)[O-])cc23)cc1Br [Example 115, (3,5-Dibromo-4-methoxy-phenyl)-(2-methyl-6-nitro-quinazolin-4-yl)-methyl-amine]		1.0	
CSc1nc(N(C)NC(=O)c2ccc(Cl)cc2)c2ccccc2n1 [4-chloro-N′-methyl-N′-(2-(methylthio)quinazolin-4-yl)benzohydrazide]			14.4
CCOc1ccc(Nc2nc(C)nc3ccccc23)cc1 [Example 106, (4-Ethoxy-phenyl)-(2-methyl-quinazolin-4-yl)-amine]		1.1	

Structure (SMILES)	Caspase activity Ratio T-47D (48 hr)	Caspase activity Ratio T-47D (24 hr)	Ratio T-47D (48 hr) (48 hr, benzohydrazide analogs table)
CC(C)=CCC/C(C)=C/CNc1nc(N(C)c2ccc(C)cc2)c2ccccc2n1 [Example 16, N^2-(3,7-Dimethyl-octa-2,6-dienyl)-N^4-(4-methyl-phenyl)-N^4-methyl-quinazoline-2,4-diamine]		7.6	
COc1ccc(N(C)c2nc(Cl)nc3cc(C)ccc23)cc1 [Example 57, (2-Chloro-7-methyl-quinazolin-4-yl)-(4-methoxy-phenyl)-methyl-amine]	6.2		
CN(c1ccc(Cl)cc1)c1nc(Cl)nc2ccccc12 [Example 3, (2-Chloro-quinazolin-4-yl)-(4-chloro-phenyl)-methyl-amine]		8.1	
CCOC(=O)c1nc(N(C)c2ccc(OC)cc2)c2ccccc2n1 [Example 117, Ethyl 4-(N-(4-Methoxy-phenyl)-N-methylamino)quinazoline-2-carboxylate]		7.4	
COc1ccc(N(C)c2nc(C)nc3ccc(N)cc23)cc1 [Example 110, (6-Amino-2-methyl-quinazolin-4-yl)-(4-methoxy-phenyl)-methyl-amine]		8.8	
CCCOc1ccc(N(C)c2nc(Cl)nc3ccccc23)cc1 [Example 70, (2-Chloro-quinazolin-4-yl)-(4-propoxy-phenyl)-methyl-amine]	11.3		
COc1ccc(N(C)c2nc(C)nc3ncccc23)cc1 [Example 92, (4-Methoxy-phenyl)-(2-methyl-pyrido[2,3-d]pyrimidin-4-yl)-methyl-amine]		10.1	
CCOc1ccc(N(C)c2nc(Cl)nc3ccccc23)cc1 [Example 97, (2-Chloro-quinazolin-4-yl)-(4-ethoxy-phenyl)-methylamine]	9.0		
COc1cccc(Nc2nc(Cl)nc3ccccc23)c1OC [Example 29, (2-Chloro-quinazolin-4-yl)-(2,3-dimethoxy-phenyl)-amine]	1.0		
COc1ccc(N(C)c2nc(C)nc3cc(N)ccc23)cc1 [Example 113, (7-Amino-2-methyl-quinazolin-4-yl)-(4-methoxy-phenyl)-methyl-amine]		3.7	
COc1ccc(Nc2nc(Cl)nc3cc(OC)c(OC)cc23)cc1 [Example 21, (2-Chloro-6,7-dimethoxyquinazolin-4-yl)-(4-methoxy-phenyl)-amine]	1.0	1.0	
COc1ccc(N(C)c2nc(NCCO)nc3ccccc23)cn1 [Example 48, N^2-(2-Hydroxyethyl)-N^4-(6-methoxypyridin-3-yl)-N^4-methyl-quinazoline-2,4-diamine]	12.5		
COc1ccc(N(C)c2nc(N(C)c3ccc(OC)cc3)c3cc(Cl)ccc3n2)cc1 [Example 61, 6-Chloro-N^2N^4-bis-(4-methoxy-phenyl)-N^2,N^4-dimethyl-quinazoline-2,4-diamine]	9.2		
CCc1ccc(N(C)c2nc(C)nc3ccccc23)cc1 [Example 87, (4-Ethyl-phenyl)-(2-methyl-quinazolin-4-yl)-methyl-amine]		6.3	
COc1ccc(N(c2nc(C)nc3ccccc23)C(F)F)cc1 [Example 139, Difluoromethyl-(4-methoxy-phenyl)-(2-methyl-quinazolin-4-yl)-amine]		5.6	
COc1ccc(Oc2ncnc3ccccc23)cc1 [Example 71, 4-(4-Methoxy-phenoxy)-quinazoline]	6.9		
COc1ccc(N(C)c2nc(Cl)nc3cccc(C)c23)cc1 [Example 58, (2-Chloro-5-methyl-quinazolin-4-yl)-(4-methoxy-phenyl)-methyl-amine]	10.8		
